Test results as given in patent publication US5488110A, “Highly water soluble bis-naphthalimides useful as anticancer agents” (The Du Pont Merck Pharmaceutical Company, priority 1994, dated 1996).
≈ marks a conversion by molar mass, not a printed value. Entries after “also recorded” stand apart in the source; their conditions may differ.

How the values were obtained:
DLD-2 human colon tumor = assay: In Vivo Human Tumor Xenograft Model, DLD-2; parameters: species or system human (xenografted in nude mice); conditions: nude mice, i.v. once daily for nine consecutive days; NCI criteria
Excerpt: (§1) The DLD-2 human colon tumor, MX-1 human mammary carcinoma, and LX-1 human lung tumor were originally obtained from a surgically removed primary colon carcinoma, breast tumor, and non-small lung carcinoma, respectively. The human tumor lines were maintained by serial passage in athymic nude mice. The MX-1 human mammary carcinoma and LX-1 human lung tumor are established tumors used by the NCI. The DLD-2, MX-1, and LX-1 tumor models have been well characterized.
The mice used in these experiments were outbred Swiss mice or BALB/c mice bearing the nude (nu/nu) gene. On day 0 male and female mice weighing 22-30 g are inoculated with 0.2 mL of a 25% tumor mince. This mince is prepared by mincing fresh tumor tissue, grown subcutaneously in passage mice, in sterile physiological saline. Palpable tumors weighing approximately 50 mg appear in the mice within 7-10 days after inoculation. The mice are pair matched by tumor weight and sex into groups of ten each and the test compounds and vehicle control are administered intravenously (i.v.) once daily for nine consecutive days. A >20% decrease in body weight on day 5 following compound administration is considered an indication of toxicity. Tumor measurements and body weights are recorded once a week. Fifteen to 18 days after the initial injection the mice are weighed, sacrificed and the tumors excised and weighed.
(§2) The efficacy of the test compounds is determined by the extent of tumor growth inhibition in treated versus vehicle-treated control mice. Initial tumor weights (mg) are calculated from the tumor dimensions (mm) measured from caliper measurements, using the formula for a prolate ellipsoid (mg of tumor weight=(length×width^2)/2). Net tumor weights are calculated for each of the treated groups and the vehicle-treated control group by subtracting the initial tumor weight from the final tumor weight on day 15. Results are expressed as a percentage decrease relative to the mean tumor weight for the control vehicle-treated group. [formula] Activity Criteria […]

[1] = test system: murine leukemia L1210 cells; assay: In vitro Growth Inhibitory Activity (MTT, 3 days); type: cell-based; conditions: Mus musculus, 72 h, 3 days at 37° C., read-out: ID50 (the source's name)
Experimental: L1210 cells were maintained in RPMI=1640 a medium supplemented with 10% heat inactivated fetal bovine serum and […] (RPMI-L). B16 cells were maintained in RPMI-1640 medium supplemented with 15% heat inactivated fetal bovine serum and antiobiotics (RPMI-C).
Exponential growing murine leukemia L1210 cells (1×10^3 cells) in 0.1 mL medium were seeded on day 0 in a 96-well microtiter plate. On day 1, 0.1 mL aliquot of medium containing graded concentrations of test analogs was added to the initial volume. After incubation at 37° C. in a humidified incubator for 3 days, the plates were centrifuged briefly and 0.1 mL of the growth medium was removed. Cell cultures were incubated with 50 μL of 3-(4,5-dimethylthiazol-2-yl)-2,5- diphenyltetrazolium bromide (MTT; 1 mg/ml in Dulbecco's phosphate buffer saline) for 4 hours at 37° C. The resulting purple formazan precipitate was solubilized with 0.2 mL of 0.04N HCl in isopropyl alcohol. Absorbance was read in a Titertek Multiskan MCC scaning well spectrophotometer (Flow Laboratories) at a test wavelength of 570 nm and a reference wavelength of 630 nm.
The ID50 values were determined by a computer program that fit all of the data (8 determinations per concentration and 12 concentrations per test analog) to the following equation:
Y=((Am-Ao)/(1+(X/ID50)n))+Ao
where: Am=absorbance of the control cells; Ao=absorbance of the cells in the presence of highest drug concentration; Y=observed absorbance; X=drug concentration; ID50 =dose of drug that inhibits the growth of cells to one half that of the control cells.

[2] = UV Method For Determining Water Solubility; type: physicochemical; conditions: for solubility: water, room temperature, saturated solution standing over excess sample 15 to 20 hours, UV
Experimental: UV Method For Determining Water Solubility:
The ultraviolet spectrum is taken at room temperature of a saturated solution of the sample (saturated solution being defined as a water solution standing over excess sample for 15 to 20 hours with no heat being applied). A standard solution of the sample is obtained in water if possible. When the solubility in water is too low to do this (<1 mg/100 ml), a mg of the sample is dissolved in DMSO and diluted to 100 ml with water. Molar or gram extinction coefficients are calculated for the standard solutions and these values are used to determine the concentration of the saturated solution.

MX-1 human breast tumor = assay: In Vivo Human Tumor Xenograft Model, MX-1; parameters: species or system human (xenografted in nude mice); conditions: nude mice, i.v. once daily for nine consecutive days; NCI criteria
Excerpt: as §1
(§3) The mice used in these experiments were outbred Swiss mice or BALB/c mice bearing the nude (nu/nu) gene. On day 0 male and female mice weighing 22-30 g are inoculated with 0.2 mL of a 25% tumor mince. […] Tumor measurements and body weights are recorded once a week. […]
as §2, with “group.” for “group. [formula] Activity Criteria”

LX-1 human lung tumor = assay: In Vivo Human Tumor Xenograft Model, LX-1; parameters: species or system human (xenografted in nude mice); conditions: nude mice, i.v. once daily for nine consecutive days; NCI criteria
Excerpt: as §1, §3
as §2, with “group.” for “group. [formula] Activity Criteria”

CN(CCN(C)CCN1C(=O)c2cccc3cc([N+](=O)[O-])cc(c23)C1=O)CCN1C(=O)c2cccc3cc([N+](=O)[O-])cc(c23)C1=O [Example 1, 2,2'-[1,2-Ethanediylbis(methylimino-2,1-ethanediyl)]-bis[5-nitro-1H-benz[de]isoquinoline-1,3(2H)-dione]methanesulfonate (1:2)]
activity against DLD-2 human colon tumor in vivo (tumor growth inhibition) (DLD-2 human colon tumor): excellent to outstanding
IC50 [1]: 0.0115 µg/mL (≈ 0.0184 µM)
water solubility (in words) ([2]; in words, relative to related compounds): unexpected increased water solubility; also recorded: dramatic unexpected increase in water solubility
solubility [2]: > 26400 µg/mL
activity against MX-1 human breast tumor in vivo (tumor growth inhibition) (MX-1 human breast tumor): good to excellent (inhibition of ≥90% is considered good to excellent activity)

CN(CCNCCN1C(=O)c2cccc3cc([N+](=O)[O-])cc(c23)C1=O)CCN1C(=O)c2cccc3cc([N+](=O)[O-])cc(c23)C1=O [Example 2, 2-[2-[N-methyl-N-[2-[[2-(5-nitro-1,2-dioxo-1H-benz[de]isoquinoline-2(3H)-yl)ethyl]amino]ethyl]amino]ethyl]-5-nitro-1H-benz[de]isoquinoline-1,3(2H)-dione methanesulfonate (1:2)]
activity against DLD-2 human colon tumor in vivo (tumor growth inhibition) (DLD-2 human colon tumor): excellent to outstanding
IC50 [1]: < 0.01 µg/mL
solubility [2]: 9600 µg/mL

O=C1c2cccc3cc([N+](=O)[O-])cc(c23)C(=O)N1CCNCCNCCN1C(=O)c2cccc3cc([N+](=O)[O-])cc(c23)C1=O [Example 3, 2,2'-[1,2-Ethanediylbis(imino-2,1-ethanediyl)]-bis[5-nitro-1H-benz[de]isoquinoline-1,3(2H)-dione]methanesulfonate (1:2)]
activity against DLD-2 human colon tumor in vivo (tumor growth inhibition) (DLD-2 human colon tumor): excellent to outstanding
IC50 [1]: 0.009 µg/mL (≈ 0.0151 µM)
solubility [2]: 600 µg/mL (≈ 1010 µM)
activity against LX-1 human lung tumor in vivo (tumor growth inhibition) (LX-1 human lung tumor): moderate (Tumor growth inhibition of 58-89% in the DLD-2 assay is considered moderate activity)
activity against MX-1 human breast tumor in vivo (tumor growth inhibition) (MX-1 human breast tumor): excellent to outstanding
